For twelve compounds, IC50 and melting point results are on record in patent publication US20230295162A1 (EÖTVÖS LORÁND TUDOMÁNYEGYETEM, priority 2020, published 2023).

Series [1] deals with Panc1 pancreatic cancer cell line. Briefly: CellTiter-Glo IC50 (Example 19). It is filed as cell-based. The following applies: Homo sapiens, PANC-1, 72 h. Here is the method: Some representative imipridones and ONC212 as reference were further tested on the following human malignant cell lines: PC3 and LNCap (prostate carcinoma); BxPC3, MiaPaCa2 and Panc1 (pancreatic cancer); A549, HCC827, H1993 and H520 (lung carcinoma); MDA-MB-453 and MDA-MB-231 (breast cancer) (see Table 2 and FIGS. 1-11).
(§1) Cell lines were maintained according to the instructions provided by ATCC (https://www.lgcstandards-atcc.org/) in a 5% CO2 humidified incubator maintained at 37° C. temperature. Effects of compounds on cell viability were measured via CellTiter-Glo® luminescent cell viability assay (Promega, Madison, WI, USA) Cells were plated at 1000 cells/well onto a flat-bottomed, white 96 well plate (BRANDplates, cat. no.: 781965). […] After the treatment, medium was removed and CellTiter-Glo® reagent was added. The luminescence signal was recorded using a microplate reader (BioTek Synergy 2 Multi-Mode Reader, BioTek, Winooski, VT, USA).
(§2) Cell viability data (% of untreated control cells) was evaluated with Microsoft Excel. Dose-response curves (using a non-linear regression model, log (inhibitor) vs response, variable slope) were generated and IC50 values were determined using Graph Pad Prism 5.02 software (GraphPad Software, San Diego, CA, USA).
(Cellular ATP, detected with luciferase, serves as a proxy for viable cell number.)

The next series relates to Detroit 562 cell line. Briefly: Additional in vitro IC50 tests (Table 3). It is filed as cell-based. The following applies: Homo sapiens. Here is the method: as §1, §2
In another series the test system is EBC-1 cell line. Briefly: Additional in vitro IC50 tests (Table 3). It is filed as cell-based. Conditions: Homo sapiens. As for the experimental part: as §1, §2
The subject of another series is Fadu cell line. Briefly: Additional in vitro IC50 tests (Table 3). The series is classed as cell-based. The following applies: Homo sapiens. As for the experimental part:
as §1, §2

In the next series the test system is H2228 cell line. Briefly: Additional in vitro IC50 tests (Table 3). Conditions: Homo sapiens, NCI-H2228. It is filed as cell-based. Here is the method:
as §1, §2

The next series deals with SCC-25 cell line. Briefly: Additional in vitro IC50 tests (Table 3). The series is classed as cell-based. The following applies: Homo sapiens. Here is the method: as §1, §2
Series [2] has as its system A-431 (human squamous carcinoma) cells. Briefly: Short term cytotoxicity, MTT assay. The series is classed as cell-based. The following applies: 1 h treatment then 72 h culture, read-out: cytotoxicity expressed in IC50, A-431. Here is the method: (§3) For the short term cytotoxicity studies the A-431 (human squamous carcinoma) and U-87 (human primary glioblastoma) cells were cultured in RPMI-1640 medium supplemented with 10% FCS (fetal calf serum, Sigma Ltd.), 2 mM L-glutamine, and […] gentamicin. Cell cultures were maintained at 37° C. in a humidified atmosphere with 5% CO2. The cells were grown to confluency and were distributed into 96-well plate with initial cell number of 5.0×10^3 per well. After 24 h incubation at 37° C., the cells were treated with the compounds in 200 μL final volume containing 1.0 v/v % DMSO. The cells were incubated with the compounds at 10^−4-10^2 μM concentration range for 1 h. Control cells were treated with serum free medium (RPMI-1640) only or with DMSO (c=1.0 v/v %) at 37° C. for 1 h. After incubation the cells were washed twice with serum free (RPMI-1640) medium. To determine the in vitro cytostatic effect, the cells were cultured for a further 72 h in 10% serum containing medium. MTT-solution ([…], 2 mg/mL, final concentration: 0.37 mg/mL) was added to each well. The respiratory chain [26, 27] and other electron transport systems reduce MTT and thereby form non-water-soluble violet formazane crystals within the cell. […] After 4 h of incubation the cells were centrifuged for 5 min (900 g) and the supernatant was removed. The obtained formazane crystals were dissolved in DMSO ([…]) and optical density (OD) of the samples was measured at λ=540 and 620 nm, respectively, using ELISA Reader (iEMS Reader, Labsystems, Finland). OD620 values were subtracted from OD540 values. The percent of cytostasis was calculated by using the following equation: Cytostatic effect (%)=[1−(ODtreated/ODcontrol)]×100 Values ODtreated and ODcontrol correspond to the optical densities of the treated and the control cells, respectively. In each case two independent experiments were carried out with 4 parallel measurements. […] The curves were defined using Microcal™ Origin1 (version 7.5) software: cytostasis was plotted as a function of concentration, fitted to a sigmoidal curve, and based on this curve, the half maximal inhibitory concentration (IC50) value was determined.
(In general: Tetrazolium assays rely on reduction of a dye to a coloured formazan, in cell work by metabolically active cells.)

Series [3] concerns U-87 (human primary glioblastoma) cells. Briefly: Short term cytotoxicity, MTT assay. It is filed as cell-based. Conditions: 1 h treatment then 72 h culture, read-out: cytotoxicity expressed in IC50, U-87. As for the experimental part:
as §3

Series [4] concerns PANC-1 (human pancreatic carcinoma) cells. Briefly: Impedance-based viability assay (xCELLigence SP), long treatment. The series is classed as cell-based. The following applies: 72 h, read-out: cytotoxicity expressed in IC50, PANC-1. An excerpt:
(Gibco®/Invitrogen Corporation, New York, NY, USA).
Data obtained from each experiment represent mathematical averages.

Series [5] has as its system EBC-1 lung cancer cell line. Briefly: High-throughput screening, CellTiter-Glo cell viability assay at 100 nM. The series is classed as cell-based, human. Conditions: Homo sapiens, EBC-1, HTS, compounds at 100 nM, 72 h, read-out: cytotoxicity expressed in IC50, EBC-1 (results of High throughput screening).
The subject of series [6] is H2228 lung cancer cell line. Described as above. The following applies: Homo sapiens, NCI-H2228, HTS, compounds at 100 nM, 72 h, read-out: cytotoxicity expressed in IC50, H2228 (results of High throughput screening). It is filed as cell-based, human.
In series [7] the test system is COLO-205 (human colorectal adenocarcinoma) cells. Briefly: Colorimetric alamarBlue assay, long treatment. The following applies: COLO 205, 72 h, read-out: cytotoxicity expressed in IC50, COLO-205. (Resazurin is reduced to fluorescent resorufin, in cell work by metabolically active cells.)
Series [8] concerns A2058 (human metastatic melanoma) cells. Briefly: Colorimetric alamarBlue assay, long treatment. The following applies: Homo sapiens, A2058, 72 h, read-out: cytotoxicity expressed in IC50, A-2058.

As a reminder, the IC50 is the concentration needed to halve the response being measured. Usually melting point stands for the temperature, or range, at which the solid turns liquid.

In the case of `O=C1C2=C(CCN(Cc3cc(F)cc(F)c3)C2)N2CCN=C2N1C(CO)c1ccc(Cl)cc1` (racemic) [I/128], the melting point is 86 °C. Further, the 50% inhibitory concentration (IC50) in series [1] turned out to be 10 nM. For the same compound, in the series with Detroit 562 cell line, the IC50 was found to be 5 nM. Further, in the series on EBC-1 cell line, the half-inhibitory concentration (IC50) worked out at 13 nM. For the same compound, the IC50 with Fadu cell line came to 12 nM. Moreover, in the series on H2228 cell line, the half-maximal inhibitory concentration (IC50) turned out to be 12 nM. For the same compound, the concentration for half-maximal inhibition (IC50) with SCC-25 cell line was 19 nM.

As to `O=C1C2=C(CCN(Cc3ccccc3)C2)N2CCN=C2N1Cc1ccc(F)cc1` [I/5], the 50% inhibitory concentration (IC50) in series [2] was 3550 nM; in series [3], over 25000 nM; in series [4], 250 nM; in series [5] it was over 100 nM; in series [6] it was over 100 nM; in series [7] it was 247 nM. In addition, the IC50 in series [8] was determined as 250 nM.

In the case of `O=C1C2=C(CCN(Cc3ccccc3)C2)N2CCN=C2N1Cc1cccc(F)c1` [I/8], the half-maximal inhibitory concentration (IC50) in series [2] was 7290 nM; in series [3], over 25000 nM; in series [4], 1420 nM; in series [5], over 100 nM; in series [6] it was over 100 nM; in [7], 4960 nM. Moreover, the IC50 in series [8] came to 1730 nM.

In the case of `O=C1C2=C(CCN(Cc3ccccc3)C2)N2CCN=C2N1Cc1cc(F)c(F)c(F)c1` [I/9], the IC50 was 1390 nM in series [2]; 6020 nM in [3]; 2220 nM in [4]; over 10000 nM in [7]; over 10000 nM in series [8].

Turning to `O=C1C2=C(CCN(Cc3ccccc3F)C2)N2CCN=C2N1Cc1ccc(C(F)(F)F)c(F)c1` [I/26], the IC50 in series [2] was 3630 nM; in [3], 3510 nM; in series [4], 920 nM; in [5] it was over 100 nM; in series [6], over 100 nM; in [7] it was over 10000 nM. In addition, in [8], the IC50 is over 10000 nM.

In the case of `O=C1C2=C(CCN(Cc3ccc(C(F)(F)F)cc3)C2)N2CCN=C2N1Cc1ccc(C(F)(F)F)c(F)c1` [I/27], the half-maximal inhibitory concentration (IC50) is 8950 nM in [2]; 5990 nM in series [3]; 25000 nM in series [4]; over 100 nM in [5]; over 100 nM in series [6]; 25000 nM in series [7]. The concentration for half-maximal inhibition (IC50) in [8] was 12800 nM.

For the compound `O=C1C2=C(CCN(Cc3ccc(F)cc3)C2)N2CCN=C2N1Cc1ccc(C(F)(F)F)c(F)c1` [I/28], the IC50 in series [2] was 2660 nM; in series [3], 17600 nM; in series [4], 960 nM; in [5], over 100 nM; in [6], over 100 nM; in [7], 3270 nM. The half-maximal inhibitory concentration (IC50) in series [8] is over 10000 nM.

With `O=C1C2=C(CCN(Cc3cccc(F)c3)C2)N2CCN=C2N1Cc1ccc(C(F)(F)F)c(F)c1` [I/31], the IC50 is under 200 nM in [2]; over 25000 nM in series [3]; 76.7 nM in [4]; under 100 nM in series [5]; under 100 nM in [6].

In the case of `O=C1C2=C(CCN(Cc3cccc(F)c3)C2)N2CCN=C2N1Cc1ccc(I)cc1` [I/46], the concentration for half-maximal inhibition (IC50) in series [2] is 6160 nM; in [3] it was 25000 nM; in [4] it was 25 nM; in [5], under 100 nM; in series [6], about 100 nM; in [8] it was over 10000 nM.

As for `NCc1cccc(CN2C(=O)C3=C(CCN(Cc4cccc(F)c4)C3)N3CCN=C23)c1` [I/60], the 50% inhibitory concentration (IC50) was under 200 nM in [2]; 416 nM in [3]; 430 nM in series [4]; over 100 nM in series [5]; over 100 nM in [6]; over 10000 nM in series [7]. The IC50 in series [8] was over 10000 nM.

In turn, `NCc1cccc(CN2C(=O)C3=C(CCN(Cc4cc(F)cc(F)c4)C3)N3CCN=C23)c1` [I/61, 4-(3-(Aminomethyl)benzyl)-7-(3,5-difluorobenzyl)-2,4,6,7,8,9-hexahydroimidazo[1,2-a]pyrido[3,4-e]pyrimidin-5(1H)-one] showed a melting point of 129.5 °C. Besides, the IC50 in series [1] was 300 nM. The IC50 in the series on Detroit 562 cell line amounted to 84 nM. Besides, in the series on EBC-1 cell line, the IC50 was found to be 29 nM. Besides, the IC50 in the series on Fadu cell line was 22 nM. Moreover, in the series on H2228 cell line, the IC50 came to 104 nM. In addition, the IC50 in the series with SCC-25 cell line is 89 nM.

For the compound `O=C1C2=C(CCN(Cc3cc(F)cc(F)c3)C2)N2CCN=C2N1[C@H](CO)c1ccc(F)cc1` [I/129 (S)], the half-inhibitory concentration (IC50) in [1] was 265 nM; with Detroit 562 cell line it was 120 nM; in the series on EBC-1 cell line, over 300 nM; with Fadu cell line, 150 nM; with H2228 cell line, 300 nM; with SCC-25 cell line, over 300 nM.
